Consider 13 compounds from patent publication US20220281866A1, “5,8-DISUBSTITUTED-[1,2,4]TRIAZOLO[1,5-A]PYRIDINYL AND 5,8-DISUBSTITUTED-IMIDAZO[1,2-A]PYRIDINE DERIVATIVES USEFUL AS INHIBITORS OF ENTEROPEPTIDASE” (Janssen Pharmaceutica NV, priority 2019, published 2022).

One assay addresses T1, Bovine trypsin (Bos taurus, UniProt P00760).
T1 construct: purchased Sigma-Aldrich T1426
T1 sequence (P00760 24-246): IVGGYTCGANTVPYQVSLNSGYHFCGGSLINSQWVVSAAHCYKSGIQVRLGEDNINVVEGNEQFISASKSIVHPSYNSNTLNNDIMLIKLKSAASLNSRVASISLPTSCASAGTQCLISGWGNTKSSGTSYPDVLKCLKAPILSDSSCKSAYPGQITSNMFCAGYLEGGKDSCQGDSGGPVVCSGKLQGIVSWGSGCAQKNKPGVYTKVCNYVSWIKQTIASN
In words: Biochemical Assay of Trypsin (T), H-D-CHA-AR-AMC substrate. To be noted: 15 μM substrate, 0.025 nM Trypsin; for kinact/KI: 12-point dose-dependence, time-dependent inhibition, duplicate dilutions, read-out: Kinact/KI^App; for inhibition at 0.1 µM: compound 0.1 μM; for inhibition at 1 µM: compound 1 μM; for inhibition at 10 µM: compound 10 μM. Here is the method:
Bovine trypsin was purchased from Sigma-Aldrich (Cat No. T1426), and 7-amino-4-methylcoumarin (AMC) conjugated peptide H-D-cyclohexylalanine (D-CHA)-AR-AMC was used as the substrate in the assay. The protease activity of trypsin was followed by measuring AMC production by the emission fluorescence intensity of AMC at 460 nm with the excitation at 375 nm, in the same assay buffer as used in the EP assay. The enzyme kinetic characterization studies yielded an average of KM to be 3.9±0.5 μM and the apparent turnover number kcat^app of 33.8±0.4 s^−1 (N=2).
Studies of compound inhibition against T were carried out under the conditions of 15 μM substrate and 0.025 nM Trypsin. Reaction progress curves were collected by reading the FI at 375/460 nm continuously for 1 hour at an interval of 1 minute. Similar to the procedure for Enteropeptidase described above, compounds of formula (I) were screened against Trypsin at 4 different concentrations to obtain the percent of inhibition at 10 μM, 1 μM, 0.1 μM and 0.01 μM, and accurate potencies of selected compounds against Trypsin were derived from detailed 12-point dose-dependence studies for time-dependent inhibitors.
(§1) Representative compounds of the present invention were tested according to the procedures as described in Biological Example 1 and Biological Example 2 above, with results as listed in Table 2 and Table 3, below. Results are reported as the %-inhibition (% Inh) or Kinact/KI value. Variability for the functional assay was typically within 20%. For the column headed Kinact/KI the listed measurement is the result of duplicate dilutions.

Assay [1] deals with T2, Recombinant full-length human EP (Enteropeptidase) (Homo sapiens, UniProt P98073).
T2 construct: Recombinant full-length human EP (PeproTech, Cat #450-48C); purchased PeproTech 450-48C
T2 sequence (P98073 whole entry): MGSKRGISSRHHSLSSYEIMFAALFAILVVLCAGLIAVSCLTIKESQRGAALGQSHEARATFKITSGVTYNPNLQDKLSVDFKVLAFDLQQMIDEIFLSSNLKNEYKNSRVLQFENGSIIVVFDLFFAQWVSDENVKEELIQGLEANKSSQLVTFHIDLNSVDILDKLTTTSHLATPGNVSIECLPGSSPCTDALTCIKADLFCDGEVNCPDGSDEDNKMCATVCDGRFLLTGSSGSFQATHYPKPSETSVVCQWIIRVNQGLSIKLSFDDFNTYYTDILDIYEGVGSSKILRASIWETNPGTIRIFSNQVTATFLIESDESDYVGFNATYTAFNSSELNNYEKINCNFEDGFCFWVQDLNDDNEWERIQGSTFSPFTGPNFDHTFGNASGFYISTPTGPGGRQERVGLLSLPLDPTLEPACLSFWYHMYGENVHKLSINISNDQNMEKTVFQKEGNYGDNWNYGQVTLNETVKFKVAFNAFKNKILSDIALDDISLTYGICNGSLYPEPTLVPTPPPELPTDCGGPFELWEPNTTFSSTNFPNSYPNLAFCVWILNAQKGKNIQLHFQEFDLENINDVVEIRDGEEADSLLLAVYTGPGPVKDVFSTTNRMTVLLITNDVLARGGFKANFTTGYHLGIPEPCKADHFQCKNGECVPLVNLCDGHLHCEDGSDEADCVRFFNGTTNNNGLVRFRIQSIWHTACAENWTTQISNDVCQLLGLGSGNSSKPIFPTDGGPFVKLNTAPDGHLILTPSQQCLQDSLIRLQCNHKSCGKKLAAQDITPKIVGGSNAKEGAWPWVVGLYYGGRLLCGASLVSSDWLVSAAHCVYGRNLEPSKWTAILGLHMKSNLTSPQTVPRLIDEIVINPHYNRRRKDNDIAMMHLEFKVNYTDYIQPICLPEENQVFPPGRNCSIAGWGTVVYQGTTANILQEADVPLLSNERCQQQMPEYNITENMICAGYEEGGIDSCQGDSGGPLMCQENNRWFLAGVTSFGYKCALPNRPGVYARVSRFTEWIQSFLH
The assay can be described thus: In vitro inhibition potencies against Enteropeptidase (EP), fluorescent peptide GDDDDK-naphthylamine substrate. The format is biochemical. To be noted: 300 μM substrate, 1.25 nM EP; for kinact/KI: 12-point dose-dependence, time-dependent inhibition, duplicate dilutions, read-out: kinact/KI^App; for inhibition at 0.1 µM: compound 0.1 μM; for inhibition at 1 µM: compound 1 μM; for inhibition at 10 µM: compound 10 μM. Here is the method: In vitro inhibition potencies against Enteropeptidase (EP) Recombinant full-length human EP (PeproTech, Cat #450-48C) was used in this biochemical assay, with a quenched fluorescent labeled peptide GDDDDK-naphthylamine (NA) (Sigma, Cat #G5261) as the substrate in a buffer of 50 mM Tris-HCl pH 7.4, 200 mM NaCl and 0.01% Triton X-100. The enzyme activity was measured by following the formation of the cleavage product […](NA) by monitoring the fluorescence intensity (FI) at excitation/emission wavelengths of 340/410 nm. The steady-state kinetic characterization studies yielded an average of KM to be 412±22 μM and the apparent turnover number kcat^app of 11.8±0.4 s^−1 (N=2).
Compound inhibition studies were carried out under the conditions of 300 μM substrate and 1.25 nM EP. Reaction progress curves were collected by reading the FI at 340/410 nm continuously for 1 hour at an interval of 1 minute.
To screen compounds of formula (I), inhibition was studied at 4 different compound concentrations of 10 μM, 1 μM, 0.1 μM and 0.01 μM. Initial velocity of the reaction was determined, and percent of inhibition was calculated by comparing to the reaction in the absence of compound.
Accurate measurements of the inhibition potencies of selected compounds were studied in a 12-point dose-dependence fashion. […] Compound potency was measured by determining the inactivation rate constant (kobs) following the reaction change from the initial velocity vi to the steady-state velocity vs at various compound concentrations. The inactivation rate constants (kobs), were derived by fitting the reaction progress curves to eq. 1.
where YT is the detection signal of the reaction at time t, vi and vs are the initial and the steady-state velocities of the reaction, t is the reaction time. Y0 is the background signal (when t=0).
Compound binding mechanism was shown by plotting kobs˜[compound]. Hyperbolic fitting to eq. 2
conforms to a two-step binding mechanism as shown in Scheme BIO-1.
The plateau of the curve is the forward step rate constant of the isomerization step k3, KI^app is the inhibitor concentration that leads to half-maximal rate of inhibition of enzyme under the assay conditions. Compound inhibition potency was reported by the value of k3/KI^app.
A linear dependence of eq.3
indicates a one-step binding mechanism as shown in Scheme BIO-2
Slope of the linear fit gives the second-order rate constant of the compound binding k1, which is used to represent the compound inhibition potency.
as §1

`N=C(N)Nc1ccc(C(=O)Oc2ccc(CC(=O)O)n3ncnc23)cc1` [Compound 1, 2-{8-[(4-carbamimidamidophenyl)carbonyloxy]-[1,2,4]triazolo[1,5-a]pyridin-5-yl}acetic acid]: at Bovine trypsin, the kinact/KI was determined as 159000 M⁻¹ s⁻¹, the inhibition at 0.1 µM came to 97.2%, the inhibition at 1 µM came out at 100% and the inhibition at 10 µM is 100%. Besides, in assay [1], the kinact/KI was determined as 130000 M⁻¹ s⁻¹, the inhibition at 0.1 µM stood at 97.8%, the inhibition at 1 µM was 100% and the inhibition at 10 µM worked out at 100%.
`N=C(N)Nc1ccc(C(=O)Oc2ccc(CCC(=O)O)n3ccnc23)cc1` [Compound 2, 3-(8-(4-guanidinobenzoyloxy)imidazo[1,2-a]pyridin-5-yl)propanoic acid]: at Bovine trypsin, the inhibition at 0.1 µM amounted to 61%, the inhibition at 1 µM came to 100% and the inhibition at 10 µM is 100%. Besides, in assay [1], the kinact/KI came to 24400 M⁻¹ s⁻¹, the inhibition at 0.1 µM came to 27.6%, the inhibition at 1 µM came to 95.1% and the inhibition at 10 µM worked out at 100%.
Regarding `N=C(N)Nc1ccc(C(=O)Oc2ccc(CCC(=O)O)n3ncnc23)cc1` [Compound 3, 3-(8-(4-guanidinobenzoyloxy)-[1,2,4]triazolo[1,5-a]pyridin-5-yl)propanoic acid], on Bovine trypsin, the inhibition at 0.1 µM came to 99.8%, the inhibition at 1 µM turned out to be 100% and the inhibition at 10 µM turned out to be 100%. For the same compound, in assay [1], the inhibition at 0.1 µM stood at 35%, the inhibition at 1 µM is 101% and the inhibition at 10 µM is 100%.
As to `N=C(N)Nc1ccc(C(=O)Oc2ccc(CC(=O)NCC(=O)O)n3ncnc23)cc1` [Compound 4, 2-(2-(8-(4-guanidinobenzoyloxy)-[1,2,4]triazolo[1,5-a]pyridin-5-yl)acetamido)acetic acid], on Bovine trypsin, the inhibition at 0.1 µM worked out at 99.7%, the inhibition at 1 µM is 100% and the inhibition at 10 µM stood at 100%. Moreover, in assay [1], the inhibition at 0.1 µM was determined as 48.1%, the inhibition at 1 µM came to 101% and the inhibition at 10 µM stood at 100%.
`N=C(N)Nc1ccc(C(=O)Oc2ccc(CC(=O)NC(CC(=O)O)C(=O)O)n3ncnc23)cc1` (stereo not shown) [Compound 5, 2-(2-(8-(4-guanidinobenzoyloxy)-[1,2,4]triazolo[1,5-a]pyridin-5-yl)acetamido)succinic acid]: at Bovine trypsin, the inhibition at 0.1 µM was 98.3%, the inhibition at 1 µM amounted to 100% and the inhibition at 10 µM came out at 100%. In addition, in assay [1], the inhibition at 0.1 µM turned out to be 48.3%, the inhibition at 1 µM was 101% and the inhibition at 10 µM was determined as 100%.
For the compound `N=C(N)Nc1ccc(C(=O)Oc2ccc(CC(=O)N(CC(=O)O)CC(=O)O)n3ncnc23)cc1` [Compound 6, 2,2′-(2-(8-(4-guanidinobenzoyloxy)-[1,2,4]triazolo[1,5-a]pyridin-5-yl)acetamido)diacetic acid], on Bovine trypsin, the inhibition at 0.1 µM came to 89.6%, the inhibition at 1 µM was 99.9% and the inhibition at 10 µM was found to be 100%. In assay [1], the inhibition at 0.1 µM amounted to 20.9%, the inhibition at 1 µM came to 72.9% and the inhibition at 10 µM stood at 101%.
As to `N=C(N)Nc1ccc(C(=O)Oc2ccc(CC(=O)NC(CCC(=O)O)(CCC(=O)O)CCC(=O)O)n3ncnc23)cc1` [Compound 7, 4-(2-carboxyethyl)-4-(2-(8-(4-guanidinobenzoyloxy)-[1,2,4]triazolo[1,5-a]pyridin-5-yl)acetamido)heptanedioic acid], at Bovine trypsin, the inhibition at 0.1 µM turned out to be 94.1%, the inhibition at 1 µM amounted to 100% and the inhibition at 10 µM turned out to be 100%. Also, in assay [1], the inhibition at 0.1 µM was 37.8%, the inhibition at 1 µM was 100% and the inhibition at 10 µM was 100%.
With `CS(=O)(=O)NC(=O)Cc1ccc(OC(=O)c2ccc(NC(=N)N)cc2)c2ncnn12` [Compound 8, 5-(2-(methylsulfonamido)-2-oxoethyl)-[1,2,4]triazolo[1,5-a]pyridin-8-yl4-guanidinobenzoate], on Bovine trypsin, the kinact/KI turned out to be 163000 M⁻¹ s⁻¹, the inhibition at 0.1 µM worked out at 98.8%, the inhibition at 1 µM was 100% and the inhibition at 10 µM came out at 99.9%. Moreover, in assay [1], the kinact/KI worked out at 181000 M⁻¹ s⁻¹, the inhibition at 0.1 µM worked out at 101%, the inhibition at 1 µM turned out to be 100% and the inhibition at 10 µM is 100%.
With `N=C(N)Nc1ccc(C(=O)Oc2ccc(CC(=O)O)n3ccnc23)cc1` [Compound 9, 2-(8-(4-guanidinobenzoyloxy)imidazo[1,2-a]pyridin-5-yl)acetic acid], at Bovine trypsin, the kinact/KI was determined as 111000 M⁻¹ s⁻¹, the inhibition at 0.1 µM came out at 96.3%, the inhibition at 1 µM was found to be 101% and the inhibition at 10 µM came out at 101%. Also, in assay [1], the kinact/KI was determined as 210000 M⁻¹ s⁻¹, the inhibition at 0.1 µM worked out at 101%, the inhibition at 1 µM was 100% and the inhibition at 10 µM was determined as 100%.
As for `N=C(N)Nc1ccc(C(=O)Oc2ccc(CC(=O)O)n3ncnc23)s1` [Compound 10, 2-(8-(5-guanidinothiophene-2-carbonyloxy)-[1,2,4]triazolo[1,5-a]pyridin-5-yl)acetic acid], at Bovine trypsin, the inhibition at 0.1 µM came out at 93.8%, the inhibition at 1 µM was 99.9% and the inhibition at 10 µM was 99.8%. In assay [1], the inhibition at 0.1 µM turned out to be 82%, the inhibition at 1 µM came out at 100% and the inhibition at 10 µM is 100%.
On to `N=C(N)Nc1ccc(C(=O)Oc2ccc(Cc3nn[nH]n3)n3ncnc23)cc1` [Compound 11, 5-((2H-tetrazol-5-yl)methyl)-[1,2,4]triazolo[1,5-a]pyridin-8-yl 4-guanidinobenzoate], for which, on Bovine trypsin, the inhibition at 0.1 µM was 99.3%, the inhibition at 1 µM was 100% and the inhibition at 10 µM was 100%. In addition, in assay [1], the inhibition at 0.1 µM was found to be 89.7%, the inhibition at 1 µM was found to be 101% and the inhibition at 10 µM worked out at 100%.
With `COc1cc(C(=O)Oc2ccc(CC(=O)O)n3ncnc23)ccc1NC(=N)N` [Compound 12, 2-(8-(4-guanidino-3-methoxybenzoyloxy)-[1,2,4]triazolo[1,5-a]pyridin-5-yl)acetic acid], at Bovine trypsin, the inhibition at 0.1 µM was found to be 13.8%, the inhibition at 1 µM is 72.4% and the inhibition at 10 µM came out at 99.9%. In assay [1], the inhibition at 0.1 µM was determined as 20.8%, the inhibition at 1 µM amounted to 87.1% and the inhibition at 10 µM was 101%.
Consider `N=C(N)Nc1ccc(C(=O)Oc2ccc(CC(=O)O)n3ncnc23)cc1I` [Compound 13, 2-(8-(4-guanidino-3-iodobenzoyloxy)-[1,2,4]triazolo[1,5-a]pyridin-5-yl)acetic acid], for which, on Bovine trypsin, the inhibition at 0.1 µM was 0.9%, the inhibition at 1 µM is 7.6% and the inhibition at 10 µM is 45%. Moreover, in assay [1], the inhibition at 0.1 µM was -1.5%, the inhibition at 1 µM came to 15.8% and the inhibition at 10 µM was 65%.
